Measured values reported in the CheMixHub viscosity set.

Assay: xn = mol fraction of the nth substance listed

NCCN + O
Conditions	viscosity [mPa·s]
298.15 K, 101 kPa, x1 = 0.044	1.221
298.15 K, 101 kPa, x1 = 0.086	1.932
298.15 K, 101 kPa, x1 = 0.161	4.028
298.15 K, 101 kPa, x1 = 0.194	5.2
298.15 K, 101 kPa, x1 = 0.245	6.69
298.15 K, 101 kPa, x1 = 0.3	8.057
298.15 K, 101 kPa, x1 = 0.33	8.351
298.15 K, 101 kPa, x1 = 0.35	8.258
298.15 K, 101 kPa, x1 = 0.374	7.825
298.15 K, 101 kPa, x1 = 0.387	7.734
298.15 K, 101 kPa, x1 = 0.397	7.379
298.15 K, 101 kPa, x1 = 0.416	7.048
298.15 K, 101 kPa, x1 = 0.441	6.544
298.15 K, 101 kPa, x1 = 0.45	6.374
298.15 K, 101 kPa, x1 = 0.474	6.012
298.15 K, 101 kPa, x1 = 0.502	5.885
298.15 K, 101 kPa, x1 = 0.517	5.667
298.15 K, 101 kPa, x1 = 0.528	5.43
298.15 K, 101 kPa, x1 = 0.55	4.61
298.15 K, 101 kPa, x1 = 0.599	3.684
298.15 K, 101 kPa, x1 = 0.664	3.054
298.15 K, 101 kPa, x1 = 0.699	2.569
298.15 K, 101 kPa, x1 = 0.801	1.94
298.15 K, 101 kPa, x1 = 0.9	1.533
303.15 K, 101.3 kPa, x1 = 0.1138	2.607
303.15 K, 101.3 kPa, x1 = 0.2306	6.369
303.15 K, 101.3 kPa, x1 = 0.3102	7.766
303.15 K, 101.3 kPa, x1 = 0.4116	6.837
303.15 K, 101.3 kPa, x1 = 0.5452	4.416
303.15 K, 101.3 kPa, x1 = 0.6294	3.321
303.15 K, 101.3 kPa, x1 = 0.7296	2.434
303.15 K, 101.3 kPa, x1 = 0.8507	1.789
303.15 K, 101.33 kPa, x1 = 0.05	1.368
303.15 K, 101.33 kPa, x1 = 0.0999	2.291
303.15 K, 101.33 kPa, x1 = 0.15	3.635
303.15 K, 101.33 kPa, x1 = 0.1998	5.292
303.15 K, 101.33 kPa, x1 = 0.2488	6.797
303.15 K, 101.33 kPa, x1 = 0.2749	7.372
303.15 K, 101.33 kPa, x1 = 0.2997	7.678
303.15 K, 101.33 kPa, x1 = 0.3246	7.767
303.15 K, 101.33 kPa, x1 = 0.3488	7.67
303.15 K, 101.33 kPa, x1 = 0.3739	7.384
303.15 K, 101.33 kPa, x1 = 0.3944	7.02
303.15 K, 101.33 kPa, x1 = 0.4542	5.965
308.15 K, 101.3 kPa, x1 = 0.1138	2.203
308.15 K, 101.3 kPa, x1 = 0.2306	5.069
308.15 K, 101.3 kPa, x1 = 0.3102	6.072
308.15 K, 101.3 kPa, x1 = 0.4116	5.411
308.15 K, 101.3 kPa, x1 = 0.5452	3.639
308.15 K, 101.3 kPa, x1 = 0.6294	2.793
308.15 K, 101.3 kPa, x1 = 0.7296	2.01
308.15 K, 101.3 kPa, x1 = 0.8507	1.574
308.15 K, 101.33 kPa, x1 = 0.05	1.208
308.15 K, 101.33 kPa, x1 = 0.0999	1.971
308.15 K, 101.33 kPa, x1 = 0.15	3.059
308.15 K, 101.33 kPa, x1 = 0.1998	4.347
308.15 K, 101.33 kPa, x1 = 0.2488	5.484
308.15 K, 101.33 kPa, x1 = 0.2749	5.92
308.15 K, 101.33 kPa, x1 = 0.2997	6.133
308.15 K, 101.33 kPa, x1 = 0.3246	6.213
313.15 K, 101.3 kPa, x1 = 0.1138	1.911
313.15 K, 101.3 kPa, x1 = 0.2306	4.122
313.15 K, 101.3 kPa, x1 = 0.3102	4.906
313.15 K, 101.3 kPa, x1 = 0.4116	4.41
313.15 K, 101.3 kPa, x1 = 0.5452	3.07
313.15 K, 101.3 kPa, x1 = 0.6294	2.402
313.15 K, 101.3 kPa, x1 = 0.7296	1.842
313.15 K, 101.3 kPa, x1 = 0.8507	1.416
318.15 K, 101.3 kPa, x1 = 0.1138	1.652
318.15 K, 101.3 kPa, x1 = 0.2306	3.388
318.15 K, 101.3 kPa, x1 = 0.3102	3.963
318.15 K, 101.3 kPa, x1 = 0.4116	3.585
318.15 K, 101.3 kPa, x1 = 0.5452	2.574
318.15 K, 101.3 kPa, x1 = 0.6294	2.066
318.15 K, 101.3 kPa, x1 = 0.7296	1.613
318.15 K, 101.3 kPa, x1 = 0.8507	1.258
323.15 K, 101 kPa, x1 = 0.044	0.684
323.15 K, 101 kPa, x1 = 0.086	0.92
323.15 K, 101 kPa, x1 = 0.161	1.549
323.15 K, 101 kPa, x1 = 0.194	1.881
323.15 K, 101 kPa, x1 = 0.245	2.184
323.15 K, 101 kPa, x1 = 0.3	2.551
323.15 K, 101 kPa, x1 = 0.33	2.571
323.15 K, 101 kPa, x1 = 0.35	2.643
323.15 K, 101 kPa, x1 = 0.374	2.423
323.15 K, 101 kPa, x1 = 0.387	2.401
323.15 K, 101 kPa, x1 = 0.397	2.306
323.15 K, 101 kPa, x1 = 0.416	2.291
323.15 K, 101 kPa, x1 = 0.441	2.214
323.15 K, 101 kPa, x1 = 0.45	2.069
323.15 K, 101 kPa, x1 = 0.474	2.058
323.15 K, 101 kPa, x1 = 0.502	1.991
323.15 K, 101 kPa, x1 = 0.517	1.919
323.15 K, 101 kPa, x1 = 0.528	1.907
323.15 K, 101 kPa, x1 = 0.55	1.733
323.15 K, 101 kPa, x1 = 0.599	1.539
323.15 K, 101 kPa, x1 = 0.664	1.32
323.15 K, 101 kPa, x1 = 0.699	1.174
323.15 K, 101 kPa, x1 = 0.801	0.978
323.15 K, 101 kPa, x1 = 0.9	0.847
